Series [1] deals with Leishmania brazilensis (L. b) promastigotes. Briefly: Leishmanicidal activity on L. braziliensis promastigotes (resazurin). The note with it: for IC50: Leishmania, 48 h, read-out: Leishmanicidal Activity IC50—L. b. Background: Resazurin is reduced to fluorescent resorufin, in cell work by metabolically active cells.
Procedure: (§1) The culture of L. braziliensis (MHOM/CO/88/UA301) and L. infantum (MCAN/ES/92/BCN83) was obtained from the Facultad de Farmacia, Universidad Complutense de Madrid, Spain.
(§2) The maintenance of the strains, the form of cultivation, and the isolation of shape promastigota followed the procedures described by Roldós et al. [8]. The promastigotes were grown at 22 °C in Schneider’s Drosophila medium supplemented with 20% FBS. The assay was performed using a modification of a previous method [47]. Promastigotes (2 × 10^6 parasites/well) were cultured in 96-well plastic plates. Compounds were dissolved in dimethylsulfoxide (DMSO). Different dilutions of the compounds up to a 200 µL final volume were added. After 48 h at 26 °C, 20 µL of 2 mM resazurin solution was added and the oxidation–reduction was quantified at 570 and 600 nm. The solution of resazurin was prepared at 2.5 mM in phosphate-buffered solution (PBS), pH 7.4, and filtered through 0.22 µM prior to use. All tests were carried out in triplicate. Resazurin sodium salt was obtained from Sigma–Aldrich (St. Louis, MO, USA) and stored at 4 °C protected from light. The efficacy of each compound was estimated by calculating the IC50 values.
Series [2] relates to Leishmania infantum (L. i) promastigotes. Description: Leishmanicidal activity on L. infantum promastigotes (resazurin). Particulars: for IC50: Leishmania infantum, 48 h, read-out: Leishmanicidal Activity IC50—L. i.
Procedure: as §1, §2
Series [3] in a line: Cytotoxicity on L929 fibroblasts (resazurin). Particulars: mouse.
In the next series the test system is T. cruzi epimastigotes. Briefly: Trypanocidal activity on T. cruzi epimastigotes (CL-B5 lacZ, CPRG). It is filed as cell-based, Trypanosoma cruzi clone CL-B5. Particulars: for IC50: Trypanosoma cruzi, 72 h; for Selectivity Index L929/ T. cruzi: SI = CC50 L929/IC50 parasites. On the procedure: For in vitro studies of T. cruzi. the clone CL-B5 was used. Parasites were stably transfected with the Escherichia coli β-galactosidase gene (lacZ), provided by Facultad de Farmacia (Universidad Complutense de Madrid). Epimastigotes were grown at 28 °C in liver infusion tryptose broth (Difco, Detroit, MI, USA) with 10% fetal bovine serum (FBS) (Gibco, Carlsbad, CA, USA), penicillin (Ern S.A., Barcelona, Spain), and streptomycin (Reig Jofré S.A., Barcelona. Spain), as described previously, and harvested during the exponential growth phase. Briefly, the screening assay was performed in 96-well microplates (Sarstedt, Inc., Newton, NC, USA) with cultures that had not reached the stationary phase. Briefly, epimastigotes were seeded at 2 × 10^5 parasites/mL in 200 µL growth media. The plates were then incubated with the respective compounds at 28 °C for 72 h. Afterwards, 50 µL of CPRG solution was added, resulting in a final concentration of 200 µM. The plates were incubated at 37 °C for an additional 4 h and then read at 595 nm. Each concentration was tested in triplicate. […] These values were calculated from the sigmoidal dose–response curve adjustment using the statistical software program Graph-Pad Prims 3.0. Benznidazole was used as a reference drug.

Series [4] relates to M. tuberculosis CIPTIR-F296. Briefly: MIC broth microdilution. It is filed as cell-based. The note with it: Mycobacterium tuberculosis, CIPTIRF296; M. tuberculosis CIPTIR-F296; read-out: MIC.
Series [5] concerns M. tuberculosis ATCC H37Rv. Briefly: MIC broth microdilution. It is filed as cell-based. Particulars: Mycobacterium tuberculosis; M. tuberculosis ATCC H37Rv; read-out: MIC.
Series [6] has as its system M. tuberculosis CIPTIR -D152. Description: MIC broth microdilution. It is filed as cell-based. The note with it: Mycobacterium tuberculosis; M. tuberculosis CIPTIR -D152; read-out: MIC.
Series [7] deals with M. intracellulare LIID-02. Description: MIC broth microdilution. It is filed as cell-based. Particulars: Mycobacterium intracellulare, LIID02. (Broth dilution looks for growth in wells or tubes with falling amounts of substance.)
In a further series the test system is M. abscessus LIID-01. Briefly: MIC broth microdilution. It is filed as cell-based. The note with it: Mycobacteroides abscessus, LIID01, 72 h.
Series [8] relates to M. intracellulare LIID-01. Description: MIC broth microdilution. It is filed as cell-based. The note with it: Mycobacterium intracellulare, LIID01.
The next series relates to M. abscessus LIID-02. Description: MIC broth microdilution. It is filed as cell-based. Particulars: Mycobacteroides abscessus, LIID02, 72 h.
The next series deals with M. abscessus LIID-03. Description: MIC broth microdilution. It is filed as cell-based. The note with it: Mycobacteroides abscessus, LIID03, 72 h.
The next series deals with M. fortuitum LIID-01. Briefly: MIC broth microdilution. It is filed as cell-based. Particulars: Mycolicibacterium fortuitum, LIID01, 72 h.
Where [9] appears, read: epimastigotes, read-out: Trypanocidal Activity IC50 T. cruzi.

The record followed here is PMC11510191, “Exploring Benzo[h]chromene Derivatives as Agents against Protozoal and Mycobacterial Infections” (Pharmaceuticals, 2024).

In brackets after ≈: the same amount, converted by molar mass. Read-outs that look alike come from different tables or passages of the source.

Usually IC50 stands for the concentration that gives 50% inhibition. For orientation: CC50 means the concentration giving 50% cytotoxicity. For the compound `Cc1ccc(-n2cc(CCC(=O)Oc3c4c(c5ccccc5c3OC(=O)CCc3cn(-c5ccc(C)cc5)nn3)OC(C)(C)C=C4)nn2)cc1` [Compound 2d], the IC50 (in series [1]; in series [2]; with T. cruzi epimastigotes (setting [9])) was above 256 µM throughout. In [3], this compound showed a CC50 at 24 h above 256 µM.
Turning to `CC1(C)C=Cc2c(OC(=O)CCCc3cn(Cc4ccc(Br)cc4)nn3)c(OC(=O)CCCc3cn(Cc4ccc(Br)cc4)nn3)c3ccccc3c2O1` [Compound 3i], the half-maximal inhibitory concentration (IC50) (in [1]; in [2]; in the series on T. cruzi epimastigotes (setting [9])) was above 256 µM in each case. In addition, the half-maximal cytotoxic concentration (CC50) at 24 h in series [3] is above 256 µM.
In general, MIC refers to the least concentration at which growth counts as inhibited. Take `CO[C@H]1/C=C/O[C@@]2(C)Oc3c(C)c(O)c4c(O)c(c(/C=N/N5CCN(C)CC5)c(O)c4c3C2=O)NC(=O)/C(C)=C\C=C\[C@H](C)[C@H](O)[C@@H](C)[C@@H](O)[C@@H](C)[C@H](OC(C)=O)[C@@H]1C` [Rifampicin, reference compound]: the results for the minimum inhibitory concentration (MIC) in series [4], in series [5] and in [6] were 1 µg/mL (≈ 1.22 µM), 2 µg/mL (≈ 2.43 µM) and 32 µg/mL (≈ 38.9 µM), respectively.
For `CC1(C)C=Cc2c(OC(=O)CCCc3cn(-c4ccc(Cl)cc4)nn3)c(OC(=O)CCCc3cn(-c4ccc(Cl)cc4)nn3)c3ccccc3c2O1` [Compound 3c], the IC50 (in series [1]; in series [2]; with T. cruzi epimastigotes (setting [9])) was above 256 µM each time. The compound also came in with a 50% cytotoxic concentration (CC50) at 24 h in series [3] above 256 µM.
For the compound `CC1(C)C=Cc2c(OC(=O)CCc3cn(Cc4ccc(Br)cc4)nn3)c(OC(=O)CCc3cn(Cc4ccc(Br)cc4)nn3)c3ccccc3c2O1` [Compound 2i], the IC50 (in [1]; in series [2]; in the series on T. cruzi epimastigotes (setting [9])) was above 256 µM each time. In [3], this compound gave a CC50 at 24 h above 256 µM.
Consider `CC(=O)NC[C@H]1CN(c2ccc(N3CCOCC3)c(F)c2)C(=O)O1` [Linezolid, reference compound], for which the MIC is 8 µg/mL (≈ 23.7 µM) in [7]; 1 µg/mL (≈ 2.96 µM) with M. abscessus LIID-01; 2 µg/mL (≈ 5.93 µM) in series [8]; 1 µg/mL (≈ 2.96 µM) in the series with M. abscessus LIID-02; 1 µg/mL (≈ 2.96 µM) in the series on M. abscessus LIID-03; 8 µg/mL (≈ 23.7 µM) against M. fortuitum LIID-01.
Turning to `Cc1ccc(-n2cc(CCCC(=O)Oc3c4c(c5ccccc5c3OC(=O)CCCc3cn(-c5ccc(C)cc5)nn3)OC(C)(C)C=C4)nn2)cc1` [Compound 3d], the IC50 (in series [1]; in series [2]; with T. cruzi epimastigotes (setting [9])) was above 256 µM throughout. The compound further gave a CC50 at 24 h in series [3] above 256 µM.
As for `C[C@@H](O)[C@H]1C(=O)N2C(C(=O)O)=C(SCCN=CN)C[C@H]12` [Imipenem, reference compound], the minimum inhibitory concentration (MIC) is above 64 µg/mL in series [7]; 32 µg/mL (≈ 107 µM) in the series with M. abscessus LIID-01; 1 µg/mL (≈ 3.34 µM) in [8]; 32 µg/mL (≈ 107 µM) in the series with M. abscessus LIID-02; 8 µg/mL (≈ 26.7 µM) in the series on M. abscessus LIID-03; 4 µg/mL (≈ 13.4 µM) in the series on M. fortuitum LIID-01.
As for `CC1(C)C=Cc2c(OC(=O)CCCc3cn(-c4ccccc4)nn3)c(OC(=O)CCCc3cn(-c4ccccc4)nn3)c3ccccc3c2O1` [Compound 3a], the half-maximal inhibitory concentration (IC50) (in series [1]; in series [2]; in the series with T. cruzi epimastigotes (setting [9])) was above 256 µM throughout. Further, the CC50 at 24 h in [3] is above 256 µM.
As for `COc1ccc(-n2cc(CCCC(=O)Oc3c4c(c5ccccc5c3OC(=O)CCCc3cn(-c5ccc(OC)cc5)nn3)OC(C)(C)C=C4)nn2)cc1` [Compound 3b], the half-maximal inhibitory concentration (IC50) (in [1]; in [2]; with T. cruzi epimastigotes (setting [9])) was above 256 µM in each case. This compound gave a 50% cytotoxic concentration (CC50) at 24 h in [3] above 256 µM.
Consider `CC1(C)C=Cc2c(OC(=O)CCc3cn(-c4cccc(Cl)c4)nn3)c(OC(=O)CCc3cn(-c4cccc(Cl)c4)nn3)c3ccccc3c2O1` [Compound 2g], for which the half-maximal inhibitory concentration (IC50) is above 256 µM in series [1]; above 256 µM in series [2]; above 256 µM in the series on T. cruzi epimastigotes (read-out: Trypanocidal Activity IC50 T. cruzi, epimastigotes, 72 h). In addition, the CC50 at 24 h in series [3] is above 384 µM.
Regarding `COc1ccc(-n2cc(CCC(=O)Oc3c4c(c5ccccc5c3OC(=O)CCc3cn(-c5ccc(OC)cc5)nn3)OC(C)(C)C=C4)nn2)cc1` [Compound 2b], the values for the half-inhibitory concentration (IC50) (in series [1]; in series [2]; in the series on T. cruzi epimastigotes (setting [9])) were above 256 µM, above 256 µM and 204 µM, respectively. In series [3], this compound displayed a CC50 at 24 h above 256 µM. In the series with T. cruzi epimastigotes, the “Selectivity Index L929/ T. cruzi” value is above 1.
For the compound `CC1(C)C=Cc2c(OC(=O)CCc3cn(-c4ccccc4)nn3)c(OC(=O)CCc3cn(-c4ccccc4)nn3)c3ccccc3c2O1` [Compound 2a], the 50% inhibitory concentration (IC50) in series [1] was above 256 µM; in [2], above 256 µM; with T. cruzi epimastigotes (setting [9]) it was 68.7 µM. Further, in series [3], the cytotoxic concentration (CC50) at 24 h is above 256 µM. The “Selectivity Index L929/ T. cruzi” value in the series with T. cruzi epimastigotes is above 4.
Regarding `C#CCCCC(=O)Oc1c2c(c3ccccc3c1OC(=O)CCCC#C)OC(C)(C)C=C2` [Compound 1b], the IC50 in [1] turned out to be 6.7 µM; in series [2], 30.5 µM; with T. cruzi epimastigotes (setting [9]), 37.3 µM. For the same compound, the “Selectivity Index L929/ L. b” value in series [1] (SI = CC50 L929/IC50 parasites) was determined as 19. Besides, in series [2] (SI = CC50 L929/IC50 parasites), the “Selectivity Index L929/ L. i” value came out at 4. The midpoint of cytotoxicity in series [3], the CC50 at 24 h, lay at 128 µM. The “Selectivity Index L929/ T. cruzi” value with T. cruzi epimastigotes stood at 3.
In series [3], `O=C(Cn1ccnc1[N+](=O)[O-])NCc1ccccc1` [Benznidazole, reference compound] had a 50% cytotoxic concentration (CC50) at 24 h of 769 µM. Further, the “Selectivity Index L929/ T. cruzi” value in the series with T. cruzi epimastigotes came to 14.0. In addition, the IC50 in the series with T. cruzi epimastigotes (setting [9]) was 54.7 µM.
On to `CC1(C)C=Cc2c(OC(=O)CCc3cn(Cc4ccc([N+](=O)[O-])cc4)nn3)c(OC(=O)CCc3cn(Cc4ccc([N+](=O)[O-])cc4)nn3)c3ccccc3c2O1` [Compound 2h], for which the IC50 (in series [1]; in series [2]; in the series with T. cruzi epimastigotes (setting [9])) was above 256 µM in each case. In addition, the CC50 at 24 h in series [3] was above 256 µM.
As for `CC1(C)C=Cc2c(OC(=O)CCc3cn(-c4ccc(Cl)cc4)nn3)c(OC(=O)CCc3cn(-c4ccc(Cl)cc4)nn3)c3ccccc3c2O1` [Compound 2c], the IC50 (in [1]; in series [2]; in the series with T. cruzi epimastigotes (setting [9])) was above 256 µM each time. Also, the CC50 at 24 h in [3] is above 256 µM.
With `CC1(C)C=Cc2c(OC(=O)CCCc3cn(-c4cccc(Cl)c4)nn3)c(OC(=O)CCCc3cn(-c4cccc(Cl)c4)nn3)c3ccccc3c2O1` [Compound 3g], the figures for the half-inhibitory concentration (IC50) (in series [1]; in series [2]; in the series with T. cruzi epimastigotes (setting [9])) were above 256 µM, above 256 µM and 146 µM, respectively. The compound also had a CC50 at 24 h in series [3] above 384 µM. Besides, the “Selectivity Index L929/ T. cruzi” value with T. cruzi epimastigotes was above 3.
In the case of `CC(=O)O[C@@H]1[C@@H](OC(C)=O)[C@H](OC(C)=O)CO[C@H]1n1cc(CCC(=O)Oc2c3c(c4ccccc4c2OC(=O)CCc2cn([C@@H]4OC[C@@H](OC(C)=O)[C@H](OC(C)=O)[C@H]4OC(C)=O)nn2)OC(C)(C)C=C3)nn1` [Compound 2e], the concentration for half-maximal inhibition (IC50) (in series [1]; in series [2]; in the series on T. cruzi epimastigotes (setting [9])) was above 256 µM each time. For the same compound, the cytotoxic concentration (CC50) at 24 h in series [3] is above 256 µM.
